Data: PMC9038795, “Deletion and tandem duplications of biosynthetic genes drive the diversity of triterpenoids in Aralia elata” (Nature Communications, 2022)

Tests used:
Experiment in all cases: HPLC-MS kinetic assay
Type in all cases: biochemical, Aralia elata
Conditions in all cases: 0.5 mM UDP-Glc, 50 mM Tris-HCl pH 7.0, 30 °C, 1 µM enzyme
AeUGT74AG6 = system: T1, AeUGT74AG6
T1 construct: pGEX-4T-1, GST-tagged, E. coli BL21 (DE3), GSTrap purified

AeUGT73AD2 = system: T2, AeUGT73AD2
T2 construct: pGEX-4T-1, GST-tagged, E. coli BL21 (DE3), GSTrap purified

AeUGT73CB3 = system: T3, AeUGT73CB3
T3 construct: pGEX-4T-1, GST-tagged, E. coli BL21 (DE3), GSTrap purified; methods print AeUGT74CB3
Procedure: HPLC-MS kinetic assay on AeUGT73CB3 | The kinetic parameters of AeUGT73CB3 for calenduloside E and chikusetsusaponin IVa as substrates were analyzed.

| Structure (SMILES) | Km (AeUGT74AG6) | Km (AeUGT73AD2) | Km (AeUGT73CB3) |
| --- | --- | --- | --- |
| CC1(C)CC[C@]2(C(=O)O)CC[C@]3(C)C(=CC[C@@H]4[C@@]5(C)CC[C@H](O)C(C)(C)[C@@H]5CC[C@]43C)[C@@H]2C1 [compound 2, oleanolic acid] | 40.3 ± 2.49 µM | 43 ± 9.17 µM | – |
| CC1(C)CC[C@]2(C(=O)O)CC[C@]3(C)C(=CC[C@@H]4[C@@]5(C)CC[C@H](O[C@@H]6O[C@H](C(=O)O)[C@@H](O)[C@H](O)[C@H]6O)C(C)(C)[C@@H]5CC[C@]43C)[C@@H]2C1 [compound 7, calenduloside E] | 150 ± 7.7 µM | – | 51.8 ± 2.1 µM |
| CC1(C)CC[C@]2(C(=O)O)CC[C@]3(C)C(=CC[C@@H]4[C@@]5(C)CC[C@H](O[C@@H]6O[C@H](C(=O)O)[C@@H](O)[C@H](O)[C@H]6O[C@@H]6O[C@H](CO)[C@@H](O)[C@H](O)[C@H]6O)C(C)(C)[C@@H]5CC[C@]43C)[C@@H]2C1 [compound 8, zingibroside R1] | 48.8 ± 3.04 µM | – | – |
| CC1(C)CC[C@]2(C(=O)O[C@@H]3O[C@H](CO)[C@@H](O)[C@H](O)[C@H]3O)CC[C@]3(C)C(=CC[C@@H]4[C@@]5(C)CC[C@H](O[C@@H]6O[C@H](C(=O)O)[C@@H](O)[C@H](O)[C@H]6O)C(C)(C)[C@@H]5CC[C@]43C)[C@@H]2C1 [compound 9, chikusetsusaponin IVa] | – | – | 640.2 ± 4.6 µM |
